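Values below derive from 48-hour exposures of cells grown in 96-well plates, with endpoints linearly interpolated between the two concentrations bracketing the appropriate inhibition level. GI50 = concentration required for 50% inhibition of growth.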 The source made the active and inactive calls. Cut-off read from the data, not from the text of the source: active = GI50 up to about 1.1 µM and inactive = higher. Some results are limits rather than exact numbers.

Experimental findings from ChEMBL document CHEMBL1201862, “PubChem BioAssay data set” (2004) are described below.

Among the test systems are HOP-62; HL-60; SK-MEL-2; OVCAR-8; CAKI-1; ACHN; LOX IMVI; SNB-75; OVCAR-4; SF-268; HCC 2998; HT-29; Malme-3M; SK-MEL-5; UACC-62; IGROV-1; A498; HCT-15.
Holding throughout (experiment): NCI anticancer screen, dose series, 48 h

In the case of `CC1=C(O)/C(=C/C(C)CCC/C(C)=C/C=C/C(C)CCCc2ccoc2)OC1=O` (stereo not drawn), the GI50 in the experiment on HOP-62 is 18.5 µM (inactive); in the experiment with HL-60 it was 24.7 µM (inactive); with SK-MEL-2, 25.5 µM (inactive); in the experiment with OVCAR-8, 34.4 µM (inactive); with CAKI-1 it was 45.5 µM (inactive); in the experiment on ACHN, 19.2 µM (inactive). Further, the GI50 was 34.2 µM (inactive) in the experiment with LOX IMVI; 25.2 µM (inactive) in the experiment on SNB-75; 29.4 µM (inactive) in the experiment on OVCAR-4; 26.7 µM (inactive) in the experiment on SF-268; 23 µM (inactive) in the experiment on HCC 2998; 45.4 µM (inactive) in the experiment with HT-29. Moreover, the GI50 in the experiment with Malme-3M is 10.1 µM (inactive).

Consider `CCn1c(SC(C)C(=O)c2c(C)n(C)n(-c3ccccc3)c2=O)nc2ccccc2c1=O` (stereo not drawn), for which the GI50 with HOP-62, in the experiment on SK-MEL-5, in the experiment on HL-60, with UACC-62, in the experiment with IGROV-1 and in the experiment on SK-MEL-2 was > 100 µM (inactive) each time. Further, the GI50 in the experiment with OVCAR-8, in the experiment on ACHN, in the experiment on LOX IMVI, in the experiment on SNB-75, in the experiment on OVCAR-4 and in the experiment on SF-268 was > 100 µM (inactive) throughout. Further, the GI50 in the experiment with A498 was > 100 µM (inactive); in the experiment with HT-29, > 100 µM (inactive); with HCT-15, greater than 100 µM; in the experiment on Malme-3M, > 100 µM (inactive).

For the compound `CC1c2[nH]c3ccccc3c2CCN1O` (stereo not drawn), the GI50 in the experiment with SK-MEL-5, with HL-60, in the experiment with UACC-62, in the experiment on IGROV-1, with SK-MEL-2 and in the experiment with OVCAR-8 was > 100 µM (inactive) throughout. Also, the GI50 in the experiment with CAKI-1 is > 100 µM (inactive); in the experiment with ACHN, > 100 µM (inactive); with LOX IMVI, > 100 µM (inactive); in the experiment on SNB-75, 68.5 µM (inactive); in the experiment on OVCAR-4, > 100 µM (inactive); in the experiment with SF-268, > 100 µM (inactive). In addition, the GI50 is > 100 µM (inactive) in the experiment on A498; > 100 µM (inactive) with HCC 2998; > 100 µM (inactive) in the experiment with HT-29; greater than 100 µM with HCT-15; > 100 µM (inactive) in the experiment with Malme-3M.

`CN(C)C(=O)C(F)(F)C(c1ccc(C(F)(F)F)cc1)C1C(=O)N(C)C(=O)N(C)C1=O` (stereo not drawn): the GI50 with HOP-62, in the experiment with SK-MEL-5, with UACC-62, with SK-MEL-2, in the experiment with CAKI-1 and in the experiment with ACHN was > 100 µM (inactive) throughout. In addition, the GI50 in the experiment on LOX IMVI, in the experiment on SNB-75, with OVCAR-4, in the experiment on SF-268, with A498 and in the experiment on HCC 2998 was > 100 µM (inactive) throughout. In the experiment on HCT-15, this compound displayed a GI50 greater than 100 µM.

As for `CSc1nc(NC2OCC(OC(C)=O)C(OC(C)=O)C2OC(C)=O)c2c(n1)OCC2=O` (stereo not drawn), the GI50 in the experiment on HOP-62, with SK-MEL-5, in the experiment on HL-60, in the experiment with UACC-62, with IGROV-1 and with SK-MEL-2 was > 100 µM (inactive) throughout. Besides, the GI50 with OVCAR-8, with CAKI-1, in the experiment on ACHN, in the experiment with LOX IMVI, in the experiment on SNB-75 and in the experiment on SF-268 was > 100 µM (inactive) in each case. Also, the GI50 in the experiment with A498 was > 100 µM (inactive); in the experiment on HCC 2998, > 100 µM (inactive); with HT-29, > 100 µM (inactive); with HCT-15 it was greater than 100 µM; in the experiment with Malme-3M it was > 100 µM (inactive).

Turning to `NS(=O)(=O)c1ccc(NC(=O)Cc2nc3ccccc3s2)cc1`, the GI50 was 22.3 µM (inactive) in the experiment with HOP-62; 20.2 µM (inactive) in the experiment on SK-MEL-5; 19.1 µM (inactive) in the experiment on HL-60; 15.7 µM (inactive) in the experiment on UACC-62; 15.7 µM (inactive) in the experiment on IGROV-1; 14.9 µM (inactive) with SK-MEL-2. In addition, the GI50 in the experiment with OVCAR-8 is 20.4 µM (inactive); with CAKI-1, 16.5 µM (inactive); with ACHN, 15.5 µM (inactive); in the experiment on SNB-75, 16.4 µM (inactive); in the experiment with OVCAR-4 it was 19.3 µM (inactive); with SF-268, 16.2 µM (inactive). Also, the GI50 with A498 is 21.1 µM (inactive); in the experiment on HCC 2998, 19.5 µM (inactive); in the experiment on HT-29, 18.3 µM (inactive); with HCT-15, 17.7 µM; with Malme-3M, 16 µM (inactive).

With `COC(=O)C1Cc2c(n(C)c3ccccc23)C(c2ccccc2)N1` (stereo not drawn), the GI50 in the experiment with SK-MEL-5 was 21.1 µM (inactive); with HL-60 it was 10.1 µM (inactive); in the experiment on UACC-62, 62.8 µM (inactive); in the experiment on IGROV-1, 45.8 µM (inactive); in the experiment with SK-MEL-2 it was 47.6 µM (inactive); with OVCAR-8, > 100 µM (inactive). In addition, the GI50 was > 100 µM (inactive) in the experiment with CAKI-1; 39.3 µM (inactive) in the experiment with ACHN; 78.7 µM (inactive) in the experiment with LOX IMVI; > 100 µM (inactive) in the experiment on SNB-75; 50.5 µM (inactive) in the experiment with OVCAR-4; > 100 µM (inactive) with SF-268. Further, the GI50 with A498 is 48.4 µM (inactive); in the experiment with HCC 2998, 49.4 µM (inactive); in the experiment with HT-29, 18.9 µM (inactive); with HCT-15 it was 14.2 µM; in the experiment on Malme-3M it was > 100 µM (inactive).

Regarding `Cc1cn2c(=O)c3ncn(C4OC(CO)C(O)C4O)c3n(C)c2n1` (stereo not drawn), the GI50 in the experiment with SK-MEL-5, in the experiment with HL-60, in the experiment with UACC-62, in the experiment with IGROV-1, in the experiment on SK-MEL-2 and in the experiment with OVCAR-8 was > 100 µM (inactive) throughout. Besides, the GI50 in the experiment with CAKI-1, with ACHN, with LOX IMVI, in the experiment on SNB-75, in the experiment with OVCAR-4 and with SF-268 was > 100 µM (inactive) throughout. The GI50 is > 100 µM (inactive) in the experiment on A498; > 100 µM (inactive) in the experiment on HCC 2998; > 100 µM (inactive) in the experiment on HT-29; greater than 100 µM with HCT-15; > 100 µM (inactive) in the experiment with Malme-3M.

As to `O=c1c2ccccc2c(=O)c2c1cc(Cl)c1[nH]c3c([nH]c12)c(Cl)cc1c(=O)c2ccccc2c(=O)c13`, the GI50 in the experiment with HOP-62, in the experiment on HL-60, in the experiment on UACC-62, in the experiment with IGROV-1, with SK-MEL-2 and with OVCAR-8 was > 100 µM (inactive) in each case. Also, the GI50 in the experiment on CAKI-1, in the experiment on ACHN, in the experiment on SNB-75, in the experiment on OVCAR-4, in the experiment on SF-268 and in the experiment on A498 was > 100 µM (inactive) each time. For the same compound, the GI50 in the experiment with HCC 2998 is > 100 µM (inactive); in the experiment on HT-29, > 100 µM (inactive); in the experiment on HCT-15 it was greater than 100 µM; in the experiment with Malme-3M it was > 100 µM (inactive).

`O/N=C1/C(=C/c2ccc3c(c2)OCO3)CCCC1C(NO)c1ccc2c(c1)OCO2` (stereo not drawn): the GI50 in the experiment on HOP-62 was 21.1 µM (inactive); in the experiment with SK-MEL-5, 17.4 µM (inactive); with HL-60 it was 15.9 µM (inactive); in the experiment on UACC-62, 19 µM (inactive); in the experiment with IGROV-1, 28.2 µM (inactive); in the experiment with SK-MEL-2, 21.4 µM (inactive). Moreover, the GI50 with OVCAR-8 is 24.6 µM (inactive); in the experiment on CAKI-1, 28.6 µM (inactive); with ACHN, 31.6 µM (inactive); in the experiment with SNB-75 it was 27.2 µM (inactive); with OVCAR-4, 24.6 µM (inactive); with SF-268 it was 28.2 µM (inactive). The GI50 was 26.5 µM (inactive) in the experiment on A498; 25 µM (inactive) in the experiment with HCC 2998; 16.7 µM (inactive) in the experiment on HT-29; 32 µM in the experiment on HCT-15; 22 µM (inactive) in the experiment with Malme-3M.

For `Cc1nc(-c2cccnc2)sc1C(=O)/C=C/c1ccc(Cl)cc1Cl`, the GI50 was > 100 µM (inactive) with HOP-62; > 100 µM (inactive) in the experiment on SK-MEL-5; 51.3 µM (inactive) in the experiment with HL-60; 83.9 µM (inactive) in the experiment with UACC-62; > 100 µM (inactive) in the experiment on IGROV-1; > 100 µM (inactive) with SK-MEL-2. In addition, the GI50 is > 100 µM (inactive) with OVCAR-8; > 100 µM (inactive) with CAKI-1; > 100 µM (inactive) with ACHN; 95.3 µM (inactive) in the experiment on LOX IMVI; 92.9 µM (inactive) in the experiment on SNB-75; > 100 µM (inactive) with SF-268. In addition, the GI50 with A498 was > 100 µM (inactive); in the experiment with HCC 2998 it was > 100 µM (inactive); in the experiment on HT-29 it was > 100 µM (inactive); in the experiment on HCT-15, greater than 100 µM; with Malme-3M, > 100 µM (inactive).

Regarding `O=C(O)CN(c1ccccc1)S(=O)(=O)c1cccc([N+](=O)[O-])c1`, the GI50 in the experiment with SK-MEL-5, in the experiment on HL-60, in the experiment on UACC-62, in the experiment with IGROV-1, in the experiment with SK-MEL-2 and in the experiment on OVCAR-8 was > 100 µM (inactive) each time. The GI50 with CAKI-1, in the experiment on ACHN, in the experiment with LOX IMVI, with SNB-75, in the experiment with OVCAR-4 and with SF-268 was > 100 µM (inactive) throughout. The GI50 in the experiment with A498 is > 100 µM (inactive); in the experiment on HT-29, > 100 µM (inactive); in the experiment on HCT-15 it was greater than 100 µM; with Malme-3M, > 100 µM (inactive).
